Results as given in patent publication US11970498B2, “CDK2 inhibitors” (BLUEPRINT MEDICINES CORPORATION, priority 2021, dated 2024).
pIC50: −log10 of the molar value. Where two headings read alike, the source gives them in different places.

Assays:
[1] = target: CDK2/Cyclin E (Homo sapiens, UniProt P24941); assay: CDK2/Cyclin E biochemical phosphorylation assay (Caliper mobility shift)
Experimental: (§1) Inhibitory effects of the compounds of the disclosure were measured in biochemical assays that measure the enzymatic phosphorylation activity of CDK enzyme in complex of Cyclin proteins phosphorylates 7.5 micromolar fluorescently labelled peptide substrate, 5-FAM-QSPKKG-CONH2, (FL-Peptide 18, Perkin Elmer, 760362) in the presence of adenosine-5′-triphosphate (ATP) and varying concentrations of the test compound in 100 mM 2-[4-(2-hydroxyethyl)piperazin-1-yl] ethanesulfonic acid (HEPES), pH 7.5, 10 mM MgCl2, 0.015% Brij-35, 1 mM dithiothreitol (DTT), 1.0% dimethylsulfoxide (DMSO). Assays were performed at 1.0 mM ATP or at ATP Km of the CDK enzymes in complex with Cyclin proteins. Reactions proceeded until between 10% to 20% total peptides were phosphorylated at room temperature (25° C.) and were terminated with 35 mM 2,2′,2″,2′″-(ethane-1,2-diyldinitrilo)tetraacetic acid (EDTA). Product was detected using the Caliper mobility shift detection method where the phosphorylated peptide (product) and substrate were electrophoretically separated and measured. Percent activity was plotted against log concentration of compound and points to generate an apparent IC50. The following CDK enzymes in complex with different cyclin proteins were used in these assays: • CDK1/Cyclin B1, GST-tag (BPS, 40454), 1.5 nM used in the assay • CDK2/Cyclin E (Eurofins, 14-475), 1.25 nM used in the assays
(§2) For inhibitory activity against CDK2/Cyclin E mutant, the following designations are used: ≤10 nM=A; >10-20 nM=B; >20-30 nM=C; >30-100 nM=D and >100=E. For inhibition CDK1/Cyclin B1, GST-tag: ≥500 nM=A; <100-500 nM=B; <100 nM=C.

[2] = target: T1, CDK1/Cyclin B1, GST-tag (Homo sapiens, UniProt P06493); assay: CDK1/Cyclin B1 biochemical phosphorylation assay (Caliper mobility shift); details: apparent IC50; 1.0 mM ATP or ATP Km; 1.5 nM enzyme; 25° C.
T1 construct: GST
T1 sequence (P06493 whole entry): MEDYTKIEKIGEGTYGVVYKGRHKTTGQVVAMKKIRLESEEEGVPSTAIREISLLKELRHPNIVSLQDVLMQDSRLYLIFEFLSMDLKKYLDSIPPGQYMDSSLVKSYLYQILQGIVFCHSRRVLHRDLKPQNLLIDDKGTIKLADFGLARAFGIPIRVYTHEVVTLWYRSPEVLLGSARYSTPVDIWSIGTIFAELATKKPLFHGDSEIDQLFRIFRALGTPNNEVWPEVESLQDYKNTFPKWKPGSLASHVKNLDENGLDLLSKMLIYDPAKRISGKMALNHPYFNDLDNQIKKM
T1 sequence (P14635 whole entry partner): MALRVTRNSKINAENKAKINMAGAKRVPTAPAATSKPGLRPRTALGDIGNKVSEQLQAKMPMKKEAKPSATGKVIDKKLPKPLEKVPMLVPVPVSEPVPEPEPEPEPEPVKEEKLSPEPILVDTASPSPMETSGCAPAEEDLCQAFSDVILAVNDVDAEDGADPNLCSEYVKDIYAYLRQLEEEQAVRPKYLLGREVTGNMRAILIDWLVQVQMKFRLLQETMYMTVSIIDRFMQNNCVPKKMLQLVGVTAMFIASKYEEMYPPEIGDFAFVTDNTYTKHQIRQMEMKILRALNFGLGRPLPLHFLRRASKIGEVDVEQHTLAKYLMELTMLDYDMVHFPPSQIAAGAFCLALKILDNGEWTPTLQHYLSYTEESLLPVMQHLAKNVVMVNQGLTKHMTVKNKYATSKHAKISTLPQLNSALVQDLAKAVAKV
Experimental: as §1, §2

[3] = apparent IC50, 1.0 mM ATP or ATP Km, 1.25 nM enzyme, 25° C., read-out: CDK2/cyclin E1 IC50

| pIC50 ([1]; additional compounds not disclosed herein, assays of Biological Example 1, read-out: inhibitory activity for CDK2/cyclin E1) | Structure (SMILES) | pIC50 [1, 3] | pIC50 [2] |
| --- | --- | --- | --- |
| < 5.00 | CC(c1cccn(C)c1=O)n1ncc2ncc(Nc3cc(OC(F)F)[nH]n3)nc21 (stereo not drawn) |  |  |
|  | FC(F)Oc1cc(Nc2cnc3cnn(C[C@@H]4CC45CC5)c3n2)n[nH]1 (racemic) [Example 109, (R)-N-(5-(difluoromethoxy)-1H-pyrazol-3-yl)-1-(spiro[2.2]pentan-1-ylmethyl)-1H-pyrazolo[3,4-b]pyrazin-6-amine and (S)-N-(5-(difluoromethoxy)-1H-pyrazol-3-yl)-1-(spiro[2.2]pentan-1-ylmethyl)-1H-pyrazolo[3,4-b]pyrazin-6-amine] | ≥ 8.00 | 6.30 to 7.00 |
|  | CC[C@H]([C@H](C)O)n1ncc2ncc(Nc3cc(OC(F)F)[nH]n3)nc21 (single isomer, unassigned) [Example 5, (2S,3R)-3-(6-((5-(difluoromethoxy)-1H-pyrazol-3-yl)amino)-1H-pyrazolo[3,4-b]pyrazin-1-yl)pentan-2-ol or (2S,3S)-3-(6-((5-(difluoromethoxy)-1H-pyrazol-3-yl)amino)-1H-pyrazolo[3,4-b]pyrazin-1-yl)pentan-2-ol] | ≥ 8.00 | ≤ 6.30 |
|  | CC[C@@H]([C@H](C)O)n1ncc2ncc(Nc3cc(OC(F)F)[nH]n3)nc21 (single isomer, unassigned) [Example 6, (2S,3S)-3-(6-((5-(difluoromethoxy)-1H-pyrazol-3-yl)amino)-1H-pyrazolo[3,4-b]pyrazin-1-yl)pentan-2-ol or (2S,3R)-3-(6-((5-(difluoromethoxy)-1H-pyrazol-3-yl)amino)-1H-pyrazolo[3,4-b]pyrazin-1-yl)pentan-2-ol] | 7.00 to 7.52 | ≤ 6.30 |
|  | C[C@@H]([C@@H]1CCOC1)n1ncc2ncc(Nc3cc(OC(F)F)[nH]n3)nc21 (single isomer, unassigned) [Example 9] | ≥ 8.00 | ≤ 6.30 |
|  | C[C@H]([C@H]1CCOC1)n1ncc2ncc(Nc3cc(OC(F)F)[nH]n3)nc21 (single isomer, unassigned) [Example 10] | ≥ 8.00 | > 7.00 |
|  | C[C@H]([C@@H]1CCOC1)n1ncc2ncc(Nc3cc(OC(F)F)[nH]n3)nc21 (single isomer, unassigned) [Example 11] | 7.52 to 7.70 | ≤ 6.30 |
|  | C[C@@H]([C@H]1CCOC1)n1ncc2ncc(Nc3cc(OC(F)F)[nH]n3)nc21 (single isomer, unassigned) [Example 12] | 7.00 to 7.52 | ≤ 6.30 |
|  | C[C@@H](c1cc(F)ccn1)n1ncc2ncc(Nc3cc(OC(F)F)[nH]n3)nc21 (single isomer, unassigned) [Example 13, (S)—N-(5-(difluoromethoxy)-1H-pyrazol-3-yl)-1-(1-(4-fluoropyridin-2-yl)ethyl)-1H-pyrazolo[3,4-b]pyrazin-6-amine or (R)—N-(5-(difluoromethoxy)-1H-pyrazol-3-yl)-1-(1-(4-fluoropyridin-2-yl)ethyl)-1H-pyrazolo[3,4-b]pyrazin-6-amine] | ≥ 8.00 | > 7.00 |
|  | C[C@H](c1cc(F)ccn1)n1ncc2ncc(Nc3cc(OC(F)F)[nH]n3)nc21 (single isomer, unassigned) [Example 14, (R)—N-(5-(difluoromethoxy)-1H-pyrazol-3-yl)-1-(1-(4-fluoropyridin-2-yl)ethyl)-1H-pyrazolo[3,4-b]pyrazin-6-amine or (S)—N-(5-(difluoromethoxy)-1H-pyrazol-3-yl)-1-(1-(4-fluoropyridin-2-yl)ethyl)-1H-pyrazolo[3,4-b]pyrazin-6-amine] | 7.70 to 8.00 | ≤ 6.30 |
|  | FC[C@@H](c1ccccn1)n1ncc2ncc(Nc3cc(OC(F)F)[nH]n3)nc21 (single isomer, unassigned) [Example 15, (R)—N-(5-(difluoromethoxy)-1H-pyrazol-3-yl)-1-(2-fluoro-1-(pyridin-2-yl)ethyl)-1H-pyrazolo[3,4-b]pyrazin-6-amine or (S)—N-(5-(difluoromethoxy)-1H-pyrazol-3-yl)-1-(2-fluoro-1-(pyridin-2-yl)ethyl)-1H-pyrazolo[3,4-b]pyrazin-6-amine] | 7.00 to 7.52 | ≤ 6.30 |
